# Measured values as given in publication PMC11180509 (The Journal of Clinical Endocrinology and Metabolism, 2024).
# Experiment: Plasma concentration of intact GIP after subcutaneous GIP injection
# Type: in vivo, human
structure (smiles),measurement,setting,value
"CC[C@H](C)[C@H](NC(=O)[C@H](CO)NC(=O)[C@H](Cc1ccc(O)cc1)NC(=O)[C@H](CC(=O)O)NC(=O)[C@H](CO)NC(=O)[C@@H](NC(=O)[C@H](Cc1ccccc1)NC(=O)[C@@H](NC(=O)CNC(=O)[C@H](CCC(=O)O)NC(=O)[C@H](C)NC(=O)[C@@H](N)Cc1ccc(O)cc1)[C@@H](C)O)[C@@H](C)CC)C(=O)N[C@@H](C)C(=O)N[C@@H](CCSC)C(=O)N[C@@H](CC(=O)O)C(=O)N[C@@H](CCCCN)C(=O)N[C@H](C(=O)N[C@@H](Cc1c[nH]cn1)C(=O)N[C@@H](CCC(N)=O)C(=O)N[C@@H](CCC(N)=O)C(=O)N[C@@H](CC(=O)O)C(=O)N[C@@H](Cc1ccccc1)C(=O)N[C@H](C(=O)N[C@@H](CC(N)=O)C(=O)N[C@@H](Cc1c[nH]c2ccccc12)C(=O)N[C@@H](CC(C)C)C(=O)N[C@@H](CC(C)C)C(=O)N[C@@H](C)C(=O)N[C@@H](CCC(N)=O)C(=O)N[C@@H](CCCCN)C(=O)NCC(=O)N[C@@H](CCCCN)C(=O)N[C@@H](CCCCN)C(=O)N[C@@H](CC(N)=O)C(=O)N[C@@H](CC(=O)O)C(=O)N[C@@H](Cc1c[nH]c2ccccc12)C(=O)N[C@@H](CCCCN)C(=O)N[C@@H](Cc1c[nH]cn1)C(=O)N[C@@H](CC(N)=O)C(=O)N[C@H](C(=O)N[C@H](C(=O)N[C@@H](CCC(N)=O)C(=O)O)[C@@H](C)O)[C@@H](C)CC)C(C)C)[C@@H](C)CC [GIP, Human GIP(1-42)]",Time until plasma intact GIP returned to basal level,"fasting men with T2D, n = 10, 200 µg GIP subcutaneous bolus",about 150 minutes
same,Tmax,"male, human, plasma, sc, 200 ug",30 min
same,Cmax,"male, human, plasma, sc, 200 ug, SEM",0.055 ± 0.0058 nM
